The target of one assay is Melanocortin receptor 4 (Homo sapiens, UniProt P32245). Nature of the assay: inhibitors of MC4R cAMP signaling – cell-based, TR-FRET, biased antagonists, dose response (AID 602298).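 Note: antagonist potency against agonist-stimulated cAMP production.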 It is filed as functional. (Time-resolved FRET reads energy transfer from a long-lived donor to a nearby acceptor.)
Assay [1] is described as follows: cAMP pathway inhibition in counterscreen cell line – TR-FRET cAMP detection, counter-screen for MC4R biased antagonist project, dose response (AID 602305).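 Note: U2OS cells stimulated with forskolin near its EC80 as the cAMP inducer; potency is for inhibition of forskolin-stimulated cAMP signaling.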 It is filed as functional, cell-based. In general terms: The purpose of a counterscreen is to sort out artefacts and off-target activity.
In assay [2] the target is Cyclin-dependent kinase 19 (Homo sapiens, UniProt Q9BWU1). Nature of the assay: Navigating the Kinome. Panel member name: CDC2L6. It is filed as functional.
Another assay concerns the target Aurora kinase A (Homo sapiens, UniProt O14965). The class given is functional.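 Note: value from the Navigating the Kinome kinase panel profiling, panel entry STK6.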
Another assay deals with Aurora kinase B (Homo sapiens, UniProt Q96GD4). The class given is functional.

Each structure is given as a SMILES string. Calls of active or inactive are those of the source.

Aurora kinase B, sequence (Q96GD4 whole entry): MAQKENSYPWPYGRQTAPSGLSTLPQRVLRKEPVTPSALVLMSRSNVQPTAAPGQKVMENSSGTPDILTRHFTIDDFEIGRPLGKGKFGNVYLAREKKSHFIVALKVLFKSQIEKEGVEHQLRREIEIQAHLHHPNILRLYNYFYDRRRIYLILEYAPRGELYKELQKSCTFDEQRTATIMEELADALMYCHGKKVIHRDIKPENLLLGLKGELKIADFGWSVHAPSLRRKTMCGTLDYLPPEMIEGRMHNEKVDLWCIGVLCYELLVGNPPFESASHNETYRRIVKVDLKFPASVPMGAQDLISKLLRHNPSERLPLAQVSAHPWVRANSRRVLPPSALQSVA
Cyclin-dependent kinase 19, sequence (Q9BWU1 whole entry): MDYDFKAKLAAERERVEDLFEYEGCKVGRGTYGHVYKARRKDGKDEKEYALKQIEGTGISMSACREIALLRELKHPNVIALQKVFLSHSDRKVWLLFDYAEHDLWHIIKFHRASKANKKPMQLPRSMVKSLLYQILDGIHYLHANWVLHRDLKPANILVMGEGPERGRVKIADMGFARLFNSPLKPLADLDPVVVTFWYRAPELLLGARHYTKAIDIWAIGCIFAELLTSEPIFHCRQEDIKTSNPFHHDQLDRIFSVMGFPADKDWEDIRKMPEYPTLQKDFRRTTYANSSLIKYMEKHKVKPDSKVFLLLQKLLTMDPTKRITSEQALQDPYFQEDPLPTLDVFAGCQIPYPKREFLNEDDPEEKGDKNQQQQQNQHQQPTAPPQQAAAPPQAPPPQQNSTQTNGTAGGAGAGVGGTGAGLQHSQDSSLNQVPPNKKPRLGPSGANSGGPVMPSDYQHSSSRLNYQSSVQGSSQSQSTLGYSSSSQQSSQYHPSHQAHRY
Aurora kinase A, sequence (O14965 whole entry): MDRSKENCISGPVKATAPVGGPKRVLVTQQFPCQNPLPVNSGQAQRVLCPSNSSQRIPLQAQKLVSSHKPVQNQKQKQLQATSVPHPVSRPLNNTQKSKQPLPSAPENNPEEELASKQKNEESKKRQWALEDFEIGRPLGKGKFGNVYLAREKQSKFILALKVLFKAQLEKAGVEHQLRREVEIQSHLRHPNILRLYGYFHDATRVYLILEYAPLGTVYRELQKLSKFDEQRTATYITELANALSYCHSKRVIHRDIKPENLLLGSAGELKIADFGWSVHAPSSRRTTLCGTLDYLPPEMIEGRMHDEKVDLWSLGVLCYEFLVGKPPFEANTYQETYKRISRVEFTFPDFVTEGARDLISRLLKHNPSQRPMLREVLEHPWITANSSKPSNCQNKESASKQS
Melanocortin receptor 4, sequence (P32245 whole entry): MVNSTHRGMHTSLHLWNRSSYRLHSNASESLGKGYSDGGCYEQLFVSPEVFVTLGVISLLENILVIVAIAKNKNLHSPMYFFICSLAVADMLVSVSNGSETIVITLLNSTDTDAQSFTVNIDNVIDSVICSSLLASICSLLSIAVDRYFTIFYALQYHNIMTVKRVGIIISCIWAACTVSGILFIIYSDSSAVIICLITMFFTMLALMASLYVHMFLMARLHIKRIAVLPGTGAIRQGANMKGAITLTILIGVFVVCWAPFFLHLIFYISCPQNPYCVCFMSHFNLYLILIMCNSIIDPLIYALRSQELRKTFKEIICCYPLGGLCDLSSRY

Consider `Cc1nc2ccc(NC(=O)c3ccc(Cl)c([N+](=O)[O-])c3)cc2s1`, for which the IC50 (at Melanocortin receptor 4; in assay [1]) was > 64600 nM (inactive) each time.
Turning to `O=C(O)c1ccccc1Nc1nc(Nc2cccc(O)c2)ncc1F`, the Ki in assay [2] was 79.4 nM (active); at Aurora kinase A, 5.01 nM (active); at Aurora kinase B, 2 nM (active).

The IC50 is the concentration that gives 50% inhibition. As a reminder, the Ki is the equilibrium dissociation constant of an inhibitor or competing ligand from its target.

The values are drawn from ChEMBL document CHEMBL1201862, “PubChem BioAssay data set” (2004).
